# US12029748B2, “Synergistic composition for maintenance of healthy balance of microflora” (KIMBERLY-CLARK WORLDWIDE, INC., priority 2017, dated 2024)
# Where a SMILES comes first, the peptide text is derived from it.
# What was measured:
# [1] = Initial pH screening of the composition; type: physicochemical; conditions: for I pH (initial pH), 0.10%: nitrogen compound 0.10 wt/vol % with 1.0 wt/vol % α methyl-D glucoside in medium; for I pH (initial pH), 0.50%: nitrogen compound 0.50 wt/vol % with 1.0 wt/vol % α methyl-D glucoside in medium; for I pH (initial pH), 1.00%: nitrogen compound 1.00 wt/vol % with 1.0 wt/vol % α methyl-D glucoside in medium
# Description: Each composition in Table 1 went through initial screening measures of solubility and initial pH (“I pH”). […] When a specific concentration of a nitrogen containing compound was insoluble, the initial and final pH (“F pH”) of the combined composition was not measured and accordingly are each marked as “NM.” Additionally, initial pH of the composition was checked as a screening measure. The initial pH was marked as either Low (“L”), High (“H”), or Pass (“P”). A Low initial pH corresponds to an initial pH being less than 5.5, a High initial pH corresponds to an initial pH being greater than 6.5, and a Pass initial pH corresponds to the pH being at or between 5.5-6.5. […] As part of the Therapeutic Effect Protocol, a final pH was also measured after the compositions that were tested against the Lactobacillus and E. coli.
# (§1) All of the ingredients in Table 2 were combined and the pH was adjusted to 6.5. […] To evaluate the effect of various nitrogen containing therapeutic agents on the growth of bacteria, the LAPT-g media, prepared as described above, was supplemented with various nitrogen containing compound therapeutic agents to a final test concentration between 0.1 and 1.0%. As initial screening measures, solubility and initial pH of each composition were checked. If a specific composition was insoluble (as detected by visual indication of precipitates or turbidity), then no further therapeutic efficacy testing was undertaken on that composition. Additionally, if the initial pH of the composition was below 5.5 (“Low”) or was above 6.5 (“High”), then no further therapeutic efficacy testing was undertaken on that composition.
# L. crispatus and E. coli = test: Therapeutic Effect Protocol: L. crispatus / E. coli co-culture, ratio after 36 hours; type: cell-based, Lactobacillus crispatus; E. coli; conditions: for Therapeutic Efficacy Results (Lactobacillus/E. coli) 0.10%: nitrogen compound 0.10 wt/vol % with 1.0 wt/vol % α methyl-D glucoside (10:1); for Therapeutic Efficacy Results (Lactobacillus/E. coli) 0.10% / Therapeutic Efficacy Results (Lactobacillus/E. coli) 0.50% / Therapeutic Efficacy Results (Lactobacillus/E. coli) 1.00%: 36 hours anaerobic co-culture, 37° C.; for Therapeutic Efficacy Results (Lactobacillus/E. coli) 0.50%: nitrogen compound 0.50 wt/vol % with 1.0 wt/vol % α methyl-D glucoside (2:1); for Therapeutic Efficacy Results (Lactobacillus/E. coli) 1.00%: nitrogen compound 1.00 wt/vol % with 1.0 wt/vol % α methyl-D glucoside (1:1); for Therapeutic effect when ratio α methyl-D glucoside : nitrogen compound is at least about 2:1, but not at 1:1 / Therapeutic effect at ratio 2:1 and 10:1, but not at 1:1 / Therapeutic effect (ratio of Lactobacillus to E. coli greater than 2) at each concentration tested / Therapeutic effect when ratio α methyl-D glucoside : nitrogen compound is less than 2:1 (1:1): with α methyl-D glucoside; for Therapeutic effect when ratio α methyl-D glucoside : nitrogen compound is at least about 2:1, but not at 1:1: ratio at least about 2:1, not 1:1; for Therapeutic effect at ratio 2:1 and 10:1, but not at 1:1: ratios 2:1 and 10:1, not 1:1; for Therapeutic effect (ratio of Lactobacillus to E. coli greater than 2) at each concentration tested: nitrogen compound 1 wt/vol %, 0.5 wt/vol % and 0.1 wt/vol %; for Therapeutic effect when ratio α methyl-D glucoside : nitrogen compound is less than 2:1 (1:1): ratio 1:1
# Procedure: As used herein the term “therapeutic effect” refers to the ability of the compositions and formulations of the present invention to stimulate the growth of Lactobacillus relative E. coli measured according to the Therapeutic Effect Protocol described below. Generally, therapeutic effect is expressed as a ratio of Lactobacillus to E. coli and is desirably greater than about 2, more preferably greater than about 20 and more desirably greater than about 100.
# The data in Table 1 was tested according to the Therapeutic Effect Protocol as described further herein. The nitrogen compounds were tested for their therapeutic efficacy at three different concentrations when combined with α methyl-D glucoside (1% wt/vol %). The concentrations of the nitrogen containing compounds that were tested were 1% wt/vol %, 0.5% wt/vol %, and 0.1% wt/vol %.
# Colonies of L. crispatus and E. coli were prepared as follows. A colony of L. crispatus was transferred to 7 ml de Man, Rogosa & Sharpe (MRS) broth and incubated anaerobically (using BD GasPak EZ anaerobe container system with indicator) at 37° C. without shaking for 18-20 hours. A colony of E. coli was transferred to 5 ml Tryptic Soy Broth (TSB) and incubated aerobically (shaking at 100 rpm) at 37° C. for 18-20 hours.
# Colonies were then inoculated as follows. Bacterial cultures were gently vortexed and 1 mL of each culture was transferred to a corresponding 2.0 mL micro-centrifuge tube and then centrifuged for two minutes at 14,500 rpm. The cultural supernatant was removed and the cell pellet was re-suspended in 1 mL of 0.95% (wt/vol %) saline. […] For L. crispatus, the pellet was re-suspended in 1 mL of 0.95% saline to achieve ˜10^7-10^8 cfu/mL. For E. coli, the pellet was re-suspended in 1 mL of 0.95% saline to achieve ˜10^8-10^9 cfu/mL.
# Media were prepared as follows.
# as §1
# Five milliliters (5 mL) of each medium was transferred to a test tube in duplicates for subsequent inoculation. A master mixture of L. crispatus and E. coli, prepared as described above, was prepared in 1,000:1 ratio. Each (5 ml) test tube was inoculated with the master mixture to give 10^5-10^6 total CFU L. crispatus and 100-1,000 total CFU E. coli per tube.
# To establish a negative control, one tube was vortexed and 100 μL was removed to determine the initial cell concentrations by serial dilutions and plating (2 plates per dilution). L. crispatus is selected on MRS agar plates incubated anaerobically at 37° C. for two days. E. coli is selected on TSA plates incubated aerobically at 37° C. for one day. The co-cultures were incubated in an anaerobic container with BD GasPaks at 37° C. for 36 hours.
# The effect of the α methyl-D glucoside and the nitrogen containing compound therapeutic agents on the ratio of L. crispatus to E. coli was measured 36 hours after inoculation and a final pH of the test solutions was recorded. The co-culture tube was vortexed and 100 μL was removed to determine the final cell concentrations by serial dilutions and plating (2 plates per dilution). L. crispatus is selected on MRS agar plates incubated anaerobically at 37° C. for two days.
SMILES,"I pH (initial pH), 0.10% [1]","I pH (initial pH), 0.50% [1]","I pH (initial pH), 1.00% [1]",Therapeutic Efficacy Results (Lactobacillus/E. coli) 0.10% (L. crispatus and E. coli),Therapeutic Efficacy Results (Lactobacillus/E. coli) 0.50% (L. crispatus and E. coli),Therapeutic Efficacy Results (Lactobacillus/E. coli) 1.00% (L. crispatus and E. coli),"Therapeutic effect when ratio α methyl-D glucoside : nitrogen compound is at least about 2:1, but not at 1:1 (L. crispatus and E. coli)","Therapeutic effect at ratio 2:1 and 10:1, but not at 1:1 (L. crispatus and E. coli)",Therapeutic effect (ratio of Lactobacillus to E. coli greater than 2) at each concentration tested (L. crispatus and E. coli),Therapeutic effect when ratio α methyl-D glucoside : nitrogen compound is less than 2:1 (1:1) (L. crispatus and E. coli)
C[C@H](N)C(=O)N[C@H](C(=O)O)[C@@H](C)O [H-Ala-Thr-OH] (H-Ala-Thr-OH),P (a Pass initial pH corresponds to the pH being at or between 5.5-6.5),P (a Pass initial pH corresponds to the pH being at or between 5.5-6.5),P (a Pass initial pH corresponds to the pH being at or between 5.5-6.5),212,>103,1.64,provided a therapeutic effect,provided a therapeutic effect,–,–
CC(=O)N[C@@H]1C(O)O[C@H](CO)[C@@H](O)[C@@H]1O (stereo partly drawn) [N-Acetyl-D-Mannosamine],P (a Pass initial pH corresponds to the pH being at or between 5.5-6.5),P (a Pass initial pH corresponds to the pH being at or between 5.5-6.5),P (a Pass initial pH corresponds to the pH being at or between 5.5-6.5),0.854,100,0.02,provided a therapeutic effect,–,–,–
Cl.N[C@@H]1C(O)O[C@H](CO)[C@@H](O)[C@@H]1O (stereo partly drawn) [D-mannosamine HCl],P (a Pass initial pH corresponds to the pH being at or between 5.5-6.5),P (a Pass initial pH corresponds to the pH being at or between 5.5-6.5),P (a Pass initial pH corresponds to the pH being at or between 5.5-6.5),0.202,84,0.96,provided a therapeutic effect,–,–,–
NCC(=O)N[C@@H](CCC(N)=O)C(=O)O.O [Gly-Gln] (H-Gly-Gln-OH),P (a Pass initial pH corresponds to the pH being at or between 5.5-6.5),P (a Pass initial pH corresponds to the pH being at or between 5.5-6.5),P (a Pass initial pH corresponds to the pH being at or between 5.5-6.5),8.57,>189,0.38,provided a therapeutic effect,provided a therapeutic effect,–,–
c1cncnc1 [Pyrimidine],P (a Pass initial pH corresponds to the pH being at or between 5.5-6.5),P (a Pass initial pH corresponds to the pH being at or between 5.5-6.5),P (a Pass initial pH corresponds to the pH being at or between 5.5-6.5),245,>4760,4.05,–,–,provided a therapeutic effect,provided a therapeutic effect
CC(O)C(N)=O (stereo not drawn) [DL Lactamide],P (a Pass initial pH corresponds to the pH being at or between 5.5-6.5),P (a Pass initial pH corresponds to the pH being at or between 5.5-6.5),P (a Pass initial pH corresponds to the pH being at or between 5.5-6.5),7.52,>1330,0.8,provided a therapeutic effect,provided a therapeutic effect,–,–
OC[C@H]1O[C@@H](n2cnc3c(O)ncnc32)[C@H](O)[C@@H]1O [Inosine],P (a Pass initial pH corresponds to the pH being at or between 5.5-6.5),P (a Pass initial pH corresponds to the pH being at or between 5.5-6.5),P (a Pass initial pH corresponds to the pH being at or between 5.5-6.5),2.75E+04,226,0.45,provided a therapeutic effect,provided a therapeutic effect,–,–
Cl.N[C@H]1C(O)O[C@H](CO)[C@@H](O)[C@@H]1O (stereo partly drawn) [D-Glucosamine HCL],P (a Pass initial pH corresponds to the pH being at or between 5.5-6.5),P (a Pass initial pH corresponds to the pH being at or between 5.5-6.5),P (a Pass initial pH corresponds to the pH being at or between 5.5-6.5),77.8,6.00E+06,454,–,–,provided a therapeutic effect,provided a therapeutic effect
C[C@H](N)C(=O)N[C@@H](CC(=O)O)C(=O)O [Ala-Asp] (H-Ala-Asp-OH),P (a Pass initial pH corresponds to the pH being at or between 5.5-6.5),L (A Low initial pH corresponds to an initial pH being less than 5.5),L (A Low initial pH corresponds to an initial pH being less than 5.5),>100,–,–,provided a therapeutic effect,–,–,–
